According to US10130670B2, “Composition for treating or preventing inflammatory skin disease, comprising, as active ingredient, immature citrus fruit extract, or synephrine or salt thereof” (BIO SPERCTRUM, INC., priority 2013, dated 2018):

How the values were obtained:
eotaxin-1 [1] = assay: eotaxin-1 reporter gene (luciferase) promoter activity in IL-4 treated fibroblast; type: cell-based; conditions: 10, 100 and 200 μM synephrine; 50 ng/ml IL-4; 24 hours; NIH/3T3
Method: Human normal fibroblast (human normal fibroblast, NIH/3T3, department of dermatology in Aju University) was transformed by inserting Eotaxin-1 reporter gene into it with superfect (Quigen Co.), and then cultured in 5% concentration of CO2 cultivator under the condition of 37° C. for 24 hours. And then, the transformed fibroblast was inoculated into 24-well microplate with DMEM media so as to be about 2×10^5 cells per well, and treated with 1, 10, 100 ppm of unripe Citrus unshiu fruit extract, or 10, 100 and 200 μM of synephrine, respectively and then was treated simultaneously with 50 ng/ml of interleukin-4 (R&D, Minneapolis Minn., IL-4) known to induce eotaxin-1, cultivated for 24 hours to collect cells. Then, the collected cells were crushed and reacted with a substrate of luciferase to determine luminescence, and a promoter activity of eotaxin-1 was determined. The results are represented in FIG. 1.

eotaxin-1 [2] = assay: extracellular secretion of eotaxin-1 by ELISA in IL-4 treated fibroblast; type: cell-based, human; conditions: 10, 100 and 200 μM synephrine; 50 ng/ml IL-4; 24 hours; NIH/3T3
Method: Human normal fibroblast (human normal fibroblast, NIH/3T3, department of dermatology in Aju University) was inoculated into 24-well microplate with DMEM media so as to be about 2×10^5 cells per well, and cultured in 5% concentration of CO2 cultivator under the condition of 37° C. for 24 hours. And then, it was treated with 1, 10, 100 ppm of unripe Citrus unshiu fruit extract, or 10, 100 and 200 μM of synephrine, respectively and then was treated simultaneously with 50 ng/ml of interleukin-4 (R&D, Minneapolis Minn., IL-4), cultivated for 24 hours to collect cell culture media. And then, the degree of secretion of eotaxin-1 was determined by using ELISA kit. The results are represented in FIG. 2.

eotaxin-1 mRNA = eotaxin-1 mRNA expression by quantitative Real-time PCR in IL-4 treated fibroblast; type: cell-based, human; conditions: 10, 100 and 200 μM synephrine; 50 ng/ml IL-4; 24 hours; NIH/3T3
Method: Human normal fibroblast (human normal fibroblast, NIH/3T3, department of dermatology in Aju University) was inoculated into 24-well microplate with DMEM media to be about 2×10^5 cell per well, and cultured in 5% concentration of CO2 cultivator under 37° C. for 24 hours. And then, it was treated with 1, 10, 100 ppm of unripe Citrus unshiu fruit extract, or 10, 100 and 200 μM of synephrine, respectively and then was treated simultaneously with 50 ng/ml of interleukin-4 (R&D, Minneapolis Minn., IL-4), cultivated for 24 hours to collect cell culture media. After extracting tRNA from the collected cells, a complementary DNA (cDNA) was synthesized based on the extracted tRNA and then, a quantitative Real-time PCR was performed by using the synthesized complementary DNA as a template to determine the degree of expression for mRNA of eotaxin-1. The results are represented in FIG. 3.

STAT6 [3] = assay: STAT6 phosphorylation by Western blot in IL-4 treated fibroblast; type: cell-based, human; conditions: 10, 100, 200 ppm synephrine for 60 minutes, then 50 ng/ml IL-4 for 20 minutes; NIH/3T3
Method: Human normal fibroblast (human normal fibroblast, NIH/3T3, department of dermatology in Aju University) was inoculated into 24-well microplate with DMEM media so as to be about 2×10^5 cells per well, and cultured in 5% concentration of CO2 cultivator under the condition of 37° C. for 24 hours. And then, it was treated with 10, 100, 200 ppm of synephrine for 60 minutes, respectively and then 50 ng/ml of IL-4 was treated to cultivate for 20 minutes. Then, the cells were collected to dissolve and then determine the degree of phosphorylation inhibition of STAT6 through Western blot. The results are represented in FIG. 3.

STAT6 [4] = assay: translocation of STAT6 into the nucleus, confocal microscopy; type: cell-based; conditions: 200 μM synephrine for 60 minutes, then 50 ng/ml IL-4 for 24 hours; NIH/3T3
Method: Human normal fibroblast (human normal fibroblast, NIH/3T3, department of dermatology in Aju University) was inoculated into 24-well microplate with DMEM media so as to be about 2×10^5 cells per well, and cultured in 5% concentration of CO2 cultivator under the condition of 37° C. for 24 hours. And then, it was treated with 200 μM of synephrine for 60 minutes, respectively and then was treated with 50 ng/ml of IL-4 to cultivate for 24 hours. And then, the cells was immobilized with paraformaldehyde (PFA) and treated with the primary antibody specifically reacting with STAT6. […] The results are represented in FIG. 5.

eosinophil = eosinophil transmigration in co-cultivation with IL-4 treated fibroblast; type: cell-based; conditions: 10, 100 and 200 μM synephrine; 50 ng/ml IL-4; 24 hours
Method: Human normal fibroblast (human normal fibroblast, NIH/3T3, department of dermatology in Aju University) was inoculated into 24-well co-cultivation plate with DMEM media so as to be about 2×10^5 cells per well, and cultured in 5% concentration of CO2 cultivator under the condition of 37° C. for 24 hours. And then, it was treated with 10, 100 and 200 μM of synephrine for 60 minutes, respectively and then 50 ng/ml of IL-4 was treated to induce the expression of eotaxin-1. Simultaneously, eosinophil was inoculated and cultivated for 24 hours. After the cultivation, the transmigration degree of eosinophil moved through the membrane to bottom of the plate was determined. The determination was measured via a fluorescence staining by using CytoSelect™ 24-Well Cell Migration Assay kit (Cell biolabs, INC., USA). The results are represented in FIG. 6.

human skin = assay: accumulated patch test for safety to the human skin; type: in vivo; conditions: for Mean reaction degree: 30 adults, 9 patches, less than 3 = safe
Method: In order to identify as to whether the unripe Citrus unshiu fruit extract or synephrine isolated from the unripe Citrus unshiu fruit is safe or not, the skin external preparation based on squalene wherein 1, 10 and 100 ppm of the unripe Citrus unshiu fruit extract prepared in Example 1 were added, was prepared, and the skin external preparation wherein 10, 150 and 300 ppm of synephrine of Example 2 were added, were prepared, respectively.
Then, the skin external preparations were applied as a patch to areas of humerus of 30 adults for accumulated 24 hours on alternate day in total 9 times to test as to whether synephrine stimulates the skin. The control used the skin external preparation based on squalene wherein the unripe Citrus unshiu fruit extract or synephrine was not comprised.
The patch used Finn chamber (Epitest Ltd, Filand) and the patch was practiced after dropping with 15 μl of the skin external preparations prepared from the above, respectively. The degree of the reaction represented on the skin in every time was scored by using the below experimental formula 1. Mean reaction degree=[{(reaction index×reaction degree)/(total number of the subject×the highest score (four point))}×100]/times of the test [Experimental Formula 1]
At this time, in the reaction degree, ± represents 1 score (point), + represents 2 score and ++ represents 4 score,
When the mean reaction degree is less than 3, it is considered as being the safe composition.

[5] = test system: children of atopy patients; assay: effect for improving atopy of cream, EASI score; type: in vivo, human; conditions: for EASI score (5 = no improvement, 0 = many improvements): cream 0.03 or 0.01% by weight, twice per day, 30 children
Method: Creams comprising the unripe Citrus unshiu fruit extract or synephrine isolated from it, having the ingredients and contents shown in below Table 2 were prepared. Specifically, aqueous phase, the purified water, triethanolamine and propylene glycol were heated to 70° C. to dissolve them, and then to it added the liquid in which oil phase, fatty acid, oily component, emulsifier and preservative were heated to 70° C. to dissolve them and stirred with homomixer (Tokushu Kika Ltd., Japan) to emulsify them. After the emulsifying them was completed, the said solution was cooled to 45° C., 0.03% by weight or 0.01% by weight of the unripe Citrus unshiu fruit extract or synephrine based on the total weight of the composition was added, dispersed and then cooled to 30° C.
Cream comprising 0.03 or 0.01% by weight of the unripe Citrus unshiu fruit extract or synephrine isolated from it, prepared according to the method of 10-1 as above was used for 30 children of atopy patients twice per day for 4 weeks. The control used the cream comprising the purified water instead of the unripe Citrus unshiu fruit extract or synephrine.
The effect improving atopy was determined by using Eczema Area Severity Index (EASI) score, the determination criterion was set as 5 for the case that there is no improvement of atopy, and 0 for the case that there are many improvements of atopy and the relative values were compared.

CNCC(O)c1ccc(O)cc1 (stereo not drawn) [synephrine, 4-[1-hydroxy-2-(methylamino)ethyl]phenol]
promoter activity of eotaxin-1 derived by IL-4 (eotaxin-1 [1]): reduced
extracellular secretion of eotaxin-1 derived by IL-4 (eotaxin-1 [2]): reduced
expression of mRNA of eotaxin-1 derived by IL-4 (eotaxin-1 mRNA): reduced
phosphorylation of STAT6 derived by IL-4 (STAT6 [3]): effectively inhibits
translocation of STAT6 derived by IL-4 into the nucleus (STAT6 [4]): inhibits
movement of eosinophil derived by eotaxin-1 expressed from the treatment of IL-4 (eosinophil): inhibits
skin reaction in the patch test (human skin; 10, 150 and 300 ppm, all test groups, all 9 patches): did not represent the skin reaction
Mean reaction degree (human skin; 10 ppm in squalene-based skin external preparation): 0.00
Mean reaction degree (human skin; 150 ppm in squalene-based skin external preparation): 0.00
Mean reaction degree (human skin; 300 ppm in squalene-based skin external preparation): 0.00
safety to the human skin, judged from mean reaction degree (human skin; all tested concentrations, mean reaction degree less than 3 = safe): safe material
EASI score (5 = no improvement, 0 = many improvements) ([5]; 1st week): 2.82
EASI score (5 = no improvement, 0 = many improvements) ([5]; 2nd week): 1.51
EASI score (5 = no improvement, 0 = many improvements) ([5]; 4th week): 0.63
EASI score compared to the control ([5]; cream used for 4 weeks): reduced compared to the control
